15 molecules from ChEMBL document CHEMBL1909046, “DrugMatrix in vitro pharmacology data” can be followed below.

One data set deals with Carbonic anhydrase 2 (Homo sapiens, UniProt P00918). Description: DRUGMATRIX: Carbonic Anhydrase II enzyme inhibition (substrate: 4-Nitrophenyl acetate (4-NPA)). Format: tissue-based, Erythrocyte. To be noted: Not Active = under 50% inhibition at 10 µM.
A short description of data set [1]: DRUGMATRIX: Phosphodiesterase PDE4 enzyme inhibition (substrate: [3H]cAMP + cAMP). To be noted: u-937; Not Active = under 50% inhibition at 10 µM.
Data set [2] deals with Voltage-gated inwardly rectifying potassium channel KCNH2 (Homo sapiens, UniProt Q12809). To be noted: hek293.
Sequence of Voltage-gated inwardly rectifying potassium channel KCNH2 (Q12809 whole entry): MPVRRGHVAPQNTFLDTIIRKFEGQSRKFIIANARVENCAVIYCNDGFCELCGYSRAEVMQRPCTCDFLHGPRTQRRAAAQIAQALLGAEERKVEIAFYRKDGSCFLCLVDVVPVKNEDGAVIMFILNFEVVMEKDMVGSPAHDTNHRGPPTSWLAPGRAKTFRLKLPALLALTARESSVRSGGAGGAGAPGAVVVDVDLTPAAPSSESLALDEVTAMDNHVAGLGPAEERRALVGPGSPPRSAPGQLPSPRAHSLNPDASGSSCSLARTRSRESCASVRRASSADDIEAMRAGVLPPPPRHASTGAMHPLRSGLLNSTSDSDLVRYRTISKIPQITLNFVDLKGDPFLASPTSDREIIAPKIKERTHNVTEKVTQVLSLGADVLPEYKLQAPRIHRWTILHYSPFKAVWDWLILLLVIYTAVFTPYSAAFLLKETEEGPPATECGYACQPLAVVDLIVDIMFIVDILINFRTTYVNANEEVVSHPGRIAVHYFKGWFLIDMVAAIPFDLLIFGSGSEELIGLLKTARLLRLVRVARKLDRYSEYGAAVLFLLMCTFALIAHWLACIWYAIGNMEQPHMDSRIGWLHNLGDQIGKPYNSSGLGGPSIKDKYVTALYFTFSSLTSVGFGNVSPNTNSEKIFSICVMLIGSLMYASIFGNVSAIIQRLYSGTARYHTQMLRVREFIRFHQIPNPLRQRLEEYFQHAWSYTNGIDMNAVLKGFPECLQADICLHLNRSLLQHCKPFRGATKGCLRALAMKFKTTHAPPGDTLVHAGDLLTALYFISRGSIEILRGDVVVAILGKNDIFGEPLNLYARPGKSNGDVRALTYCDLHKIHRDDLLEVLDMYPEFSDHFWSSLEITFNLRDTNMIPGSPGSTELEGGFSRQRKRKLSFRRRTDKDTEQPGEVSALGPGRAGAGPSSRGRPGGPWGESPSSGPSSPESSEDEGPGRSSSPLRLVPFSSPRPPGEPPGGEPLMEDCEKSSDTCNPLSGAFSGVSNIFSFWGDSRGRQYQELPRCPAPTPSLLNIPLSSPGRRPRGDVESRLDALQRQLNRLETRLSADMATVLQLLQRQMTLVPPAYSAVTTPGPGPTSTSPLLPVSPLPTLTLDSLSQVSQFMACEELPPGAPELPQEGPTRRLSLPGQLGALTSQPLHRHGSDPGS
Data set [3] in a line: DRUGMATRIX: Platelet-Derived Growth Factor (PDGF) radioligand binding (ligand: [125I] PDGF). The format is cell-based. To be noted: nih3t3; Not Active = under 50% inhibition at 10 µM.
Another data set deals with T1, Progesterone receptor (Bos taurus, UniProt Q690N0).
T1 sequence (Q690N0 whole entry): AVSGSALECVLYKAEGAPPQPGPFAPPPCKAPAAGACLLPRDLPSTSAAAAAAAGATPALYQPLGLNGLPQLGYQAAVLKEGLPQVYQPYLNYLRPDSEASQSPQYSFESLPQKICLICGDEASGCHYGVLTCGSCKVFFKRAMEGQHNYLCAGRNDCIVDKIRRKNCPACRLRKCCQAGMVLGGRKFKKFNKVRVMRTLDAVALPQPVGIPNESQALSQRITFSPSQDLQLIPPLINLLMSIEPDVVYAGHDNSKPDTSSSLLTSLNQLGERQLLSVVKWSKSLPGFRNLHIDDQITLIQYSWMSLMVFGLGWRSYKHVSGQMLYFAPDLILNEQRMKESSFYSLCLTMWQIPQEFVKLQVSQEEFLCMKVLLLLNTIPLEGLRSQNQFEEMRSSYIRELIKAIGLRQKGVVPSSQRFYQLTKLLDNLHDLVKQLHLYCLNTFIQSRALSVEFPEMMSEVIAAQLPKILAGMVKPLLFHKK
Description: DRUGMATRIX: Progesterone radioligand binding (ligand: [3H] R-5020). Format: tissue-based, Uterus. To be noted: Not Active = under 50% inhibition at 10 µM.

Data set [4] deals with C-C chemokine receptor type 5 (Homo sapiens, UniProt P51681). The format is cell membranes, Membrane. The conditions noted are these: hek293.
Sequence of C-C chemokine receptor type 5 (P51681 whole entry): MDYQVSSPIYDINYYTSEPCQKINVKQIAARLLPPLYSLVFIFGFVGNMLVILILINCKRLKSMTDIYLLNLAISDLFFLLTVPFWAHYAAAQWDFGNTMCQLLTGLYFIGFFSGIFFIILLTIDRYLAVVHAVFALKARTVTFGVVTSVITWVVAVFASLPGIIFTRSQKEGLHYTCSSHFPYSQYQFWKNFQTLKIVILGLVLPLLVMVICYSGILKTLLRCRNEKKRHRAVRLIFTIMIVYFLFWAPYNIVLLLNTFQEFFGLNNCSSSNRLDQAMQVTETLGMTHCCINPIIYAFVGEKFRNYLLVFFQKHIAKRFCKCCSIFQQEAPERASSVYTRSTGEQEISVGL
The target of another data set is T2, D(4) dopamine receptor (Homo sapiens, UniProt P21917).
T2 sequence (P21917 whole entry): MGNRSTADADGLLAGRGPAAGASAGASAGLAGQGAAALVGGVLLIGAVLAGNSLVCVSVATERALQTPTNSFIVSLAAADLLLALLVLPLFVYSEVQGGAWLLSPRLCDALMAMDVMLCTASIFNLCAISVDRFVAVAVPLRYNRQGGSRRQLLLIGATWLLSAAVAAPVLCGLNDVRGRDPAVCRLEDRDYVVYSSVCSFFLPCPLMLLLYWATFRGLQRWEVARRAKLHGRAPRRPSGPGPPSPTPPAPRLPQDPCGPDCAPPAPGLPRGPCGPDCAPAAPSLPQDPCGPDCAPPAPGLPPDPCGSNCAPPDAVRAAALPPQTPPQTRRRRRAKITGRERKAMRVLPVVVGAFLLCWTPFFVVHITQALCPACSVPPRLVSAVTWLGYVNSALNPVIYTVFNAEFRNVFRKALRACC
Description: DRUGMATRIX: Dopamine D4.2 radioligand binding (ligand: [3H] Spiperone). Format: cell membranes, CHO-K1, Membrane. To be noted: cho-k1; Not Active = under 50% inhibition at 10 µM.

One may read the IC50 as the concentration at which inhibition is half-maximal.

Take `CN1C(=O)CN=C(c2ccccc2)c2cc([N+](=O)[O-])ccc21` [NIMETAZEPAM]: the IC50 result (against Carbonic anhydrase 2 (erythrocyte); in data set [1]; in data set [2]; in data set [3]; on Progesterone receptor; in data set [4]) was “Not Active” in each case. Moreover, at D(4) dopamine receptor, the concentration for half-maximal inhibition (IC50) entry was “Not Active”. For the same molecule, the Ki entry in data set [1], in data set [2] and in data set [3] was “Not Active” each time.

For the molecule `COc1ccc2c(c1OC)C(=O)O[C@@H]2[C@H]1c2c(cc3c(c2OC)OCO3)CCN1C` [NOSCAPINE], the IC50 result (at Carbonic anhydrase 2 (erythrocyte); in data set [1]; in data set [2]; in data set [3]; at Progesterone receptor; in data set [4]) was “Not Active” throughout. Moreover, at D(4) dopamine receptor, the IC50 result was “Not Active”. Also, the Ki entry in data set [1], in data set [2] and in data set [3] was “Not Active” each time.

`C[C@@H]1O[C@@H](O[C@H]2C[C@@H](O)[C@]3(CO)[C@H]4[C@H](O)C[C@]5(C)[C@@H](C6=CC(=O)OC6)CC[C@]5(O)[C@@H]4CC[C@]3(O)C2)[C@H](O)[C@H](O)[C@H]1O` [OUABAIN]: the IC50 result (against Carbonic anhydrase 2 (erythrocyte); in data set [1]; in data set [2]; in data set [3]; on Progesterone receptor; in data set [4]) was “Not Active” throughout. Also, the IC50 result on D(4) dopamine receptor is given as “Not Active”. Moreover, the Ki entry in data set [1], in data set [2] and in data set [3] was “Not Active” throughout.

Take `NC(=O)N1c2ccccc2CC(=O)c2ccccc21` [OXCARBAZEPINE]: the 50% inhibitory concentration (IC50) entry (against Carbonic anhydrase 2 (erythrocyte); in data set [1]; in data set [2]; in data set [3]; at Progesterone receptor; in data set [4]) was “Not Active” each time. Also, the IC50 result at D(4) dopamine receptor was “Not Active”. The Ki result in data set [1], in data set [2] and in data set [3] was “Not Active” in each case.

In the case of `COc1ccnc(C[S+]([O-])c2nc3ccc(OC(F)F)cc3[nH]2)c1OC` (stereo not drawn) [PANTOPRAZOLE], the IC50 result (on Carbonic anhydrase 2 (erythrocyte); in data set [1]; in data set [2]; in data set [3]; at Progesterone receptor; in data set [4]) was “Not Active” each time. Moreover, the IC50 result at D(4) dopamine receptor is “Not Active”. For the same molecule, the Ki entry in data set [1], in data set [2] and in data set [3] was “Not Active” in each case.

Take `NNCCc1ccccc1` [PHENELZINE]: the IC50 entry (against Carbonic anhydrase 2 (erythrocyte); in data set [1]; in data set [2]; in data set [3]; at Progesterone receptor; in data set [4]) was “Not Active” in each case. Also, the IC50 entry on D(4) dopamine receptor is “Not Active”. Also, the Ki result in data set [1], in data set [2] and in data set [3] was “Not Active” throughout.

Regarding `CCc1ccc(CCOc2ccc(CC3SC(=O)NC3=O)cc2)nc1` (stereo not drawn) [PIOGLITAZONE], the half-inhibitory concentration (IC50) at Carbonic anhydrase 2 (read-out: IC50) is 114 nM; in data set [1], “Not Active”; in data set [2], “Not Active”; in data set [3] it was “Not Active”; on Progesterone receptor, “Not Active”; in data set [4], “Not Active”. In addition, the IC50 entry at D(4) dopamine receptor is listed as “Not Active”. In addition, the Ki entry in data set [1], in data set [2] and in data set [3] was “Not Active” throughout.

Turning to `CCCNC(C)C(=O)Nc1ccccc1C` (stereo not drawn) [PRILOCAINE], the IC50 entry (on Carbonic anhydrase 2 (erythrocyte); in data set [1]; in data set [2]; in data set [3]; on Progesterone receptor; in data set [4]) was “Not Active” each time. Besides, the IC50 result on D(4) dopamine receptor is “Not Active”. Besides, the Ki result in data set [1], in data set [2] and in data set [3] was “Not Active” throughout.

For `CCN(CC)CCNC(=O)c1ccc(N)cc1` [PROCAINAMIDE], the IC50 entry (against Carbonic anhydrase 2 (erythrocyte); in data set [1]; in data set [2]; in data set [3]; at Progesterone receptor; in data set [4]) was “Not Active” in each case. For the same molecule, at D(4) dopamine receptor, the concentration for half-maximal inhibition (IC50) result is listed as “Not Active”. For the same molecule, the Ki entry in data set [1], in data set [2] and in data set [3] was “Not Active” each time.

With `CCN(CC)CCCC(C)Nc1c2ccc(Cl)cc2nc2ccc(OC)cc12` (stereo not drawn) [QUINACRINE], the IC50 result (against Carbonic anhydrase 2 (erythrocyte); in data set [1]; in data set [2]; in data set [3]; on Progesterone receptor; in data set [4]) was “Not Active” throughout. Further, the half-maximal inhibitory concentration (IC50) result on D(4) dopamine receptor was “Not Active”. Besides, the Ki result in data set [1], in data set [2] and in data set [3] was “Not Active” in each case.

Take `C[C@]12C=CC(=O)C=C1CC[C@H]1[C@@H]3C[C@@H](O)[C@](O)(C(=O)CO)[C@@]3(C)C[C@H](O)[C@@]12F` [TRIAMCINOLONE]: the IC50 entry (against Carbonic anhydrase 2 (erythrocyte); in data set [1]; in data set [2]; in data set [3]; at Progesterone receptor; in data set [4]) was “Not Active” throughout. In addition, the IC50 entry on D(4) dopamine receptor is “Not Active”. Moreover, the Ki entry in data set [1], in data set [2] and in data set [3] was “Not Active” throughout.

As for `CC[C@]1(O)C[C@@H]2CN(CCc3c([nH]c4ccccc34)[C@@](C(=O)OC)(c3cc4c(cc3OC)N(C)[C@H]3[C@@](O)(C(N)=O)[C@H](O)[C@]5(CC)C=CCN6CC[C@]43[C@@H]65)C2)C1` [VINDESINE], the concentration for half-maximal inhibition (IC50) result (at Carbonic anhydrase 2 (erythrocyte); in data set [1]; in data set [2]; in data set [3]; at Progesterone receptor; in data set [4]) was “Not Active” each time. Also, the IC50 result on D(4) dopamine receptor was “Not Active”. Moreover, the Ki result in data set [1], in data set [2] and in data set [3] was “Not Active” in each case.

As for `CCN(C(C)=O)c1cccc(-c2ccnc3c(C#N)cnn23)c1` [ZALEPLON], the 50% inhibitory concentration (IC50) entry (on Carbonic anhydrase 2 (erythrocyte); in data set [1]; in data set [2]; in data set [3]; at Progesterone receptor; in data set [4]) was “Not Active” each time. Besides, at D(4) dopamine receptor, the half-inhibitory concentration (IC50) result is on record as “Not Active”. Moreover, the Ki entry in data set [1], in data set [2] and in data set [3] was “Not Active” throughout.

On to COBALTOUS CHLORIDE, for which the half-maximal inhibitory concentration (IC50) entry (on Carbonic anhydrase 2 (erythrocyte); in data set [1]; in data set [2]; in data set [3]; at Progesterone receptor; in data set [4]) was “Not Active” throughout. Also, at D(4) dopamine receptor, the IC50 result is recorded as “Not Active”. In addition, the Ki entry (on Carbonic anhydrase 2 (erythrocyte); in data set [1]; in data set [2]; in data set [3]; at Progesterone receptor; in data set [4]) was “Not Active” each time. The Ki result on D(4) dopamine receptor is given as “Not Active”.

COLISTIN: the IC50 result (on Carbonic anhydrase 2 (erythrocyte); in data set [1]; in data set [2]; in data set [3]; on Progesterone receptor; in data set [4]) was “Not Active” in each case. Further, the concentration for half-maximal inhibition (IC50) entry on D(4) dopamine receptor is given as “Not Active”. Moreover, the Ki entry (at Carbonic anhydrase 2 (erythrocyte); in data set [1]; in data set [2]; in data set [3]; on Progesterone receptor; in data set [4]) was “Not Active” each time. Besides, on D(4) dopamine receptor, the Ki entry is listed as “Not Active”.
